Measured values reported in the supplement of paper PMC4862054.

Tests used:
Assay in all cases: normalised response (% of control), CellTiter-Glo; higher = more viable cells (100 = DMSO, 0 = benzethonium chloride kill control)
Conditions in all cases: incubation time: 72 h
BT-549 = system: BT-549
Outline: (§1)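 The table gives the normalised signal for a single concentration in each entry. Breast cancer cell lines were seeded (20 µl suspension) into 384-well plates holding compound at 5 concentrations in 10-fold steps over a compound-specific 10,000-fold range and incubated 72 h, then read for CellTox Green fluorescence (485/520 nm) and CellTiter-Glo luminescence. Normalisation on each plate used 0.1 % DMSO (100) and a positive kill control (0).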

CAL-120 = system: CAL-120
Outline: as §1

CAL-148 = system: CAL-148
Outline: as §1

CAL-51 = system: CAL-51
Outline: as §1

CAL-85-1 = system: CAL-85-1
Outline: as §1

DU-4475 = system: DU-4475
Outline: as §1

HCC1143 = system: HCC1143
Outline: as §1

HCC1599 = system: HCC1599
Outline: as §1

HCC1937 = system: HCC1937
Outline: as §1

HDQ-P1 = system: HDQ-P1
Outline: as §1

Hs578T = system: Hs578T
Outline: as §1

MCF-10A = system: MCF-10A
Outline: as §1

MDA-MB-231 = system: MDA-MB-231
Outline: as §1

MDA-MB-453 = system: MDA-MB-453
Outline: as §1

MDA-MB-468 = system: MDA-MB-468
Outline: as §1

SK-BR-3 = system: SK-BR-3
Outline: as §1

BT-474 = system: BT-474
Outline: as §1

MDA-MB-436 = system: MDA-MB-436
Outline: as §1

MFM-223 = system: MFM-223
Outline: as §1

Row | Compound | normalised response (BT-549) [%] | normalised response (CAL-120) [%] | normalised response (CAL-148) [%] | normalised response (CAL-51) [%] | normalised response (CAL-85-1) [%] | normalised response (DU-4475) [%] | normalised response (HCC1143) [%] | normalised response (HCC1599) [%] | normalised response (HCC1937) [%] | normalised response (HDQ-P1) [%] | normalised response (Hs578T) [%] | normalised response (MCF-10A) [%] | normalised response (MDA-MB-231) [%] | normalised response (MDA-MB-453) [%] | normalised response (MDA-MB-468) [%] | normalised response (SK-BR-3) [%] | normalised response (BT-474) [%] | normalised response (MDA-MB-436) [%] | normalised response (MFM-223) [%]
1 | CCC(C)(C)C(=O)O[C@H]1C[C@@H](C)C=C2C=C[C@H](C)[C@H](CC[C@@H]3C[C@@H](O)CC(=O)O3)[C@H]21 [Simvastatin] (1 nM) | 98.9 | 100 | 102 | 114 | 96.8 | 102 | 102 | 111 | 103 | 98.5 | 103 | 107 | 94.8 | 106 | 100 | 105 |  |  | 
2 | O=C(CCCCCCC(=O)Nc1ccc([C@H]2O[C@@H](CSc3nc(-c4ccccc4)c(-c4ccccc4)o3)C[C@@H](c3ccc(CO)cc3)O2)cc1)NO [Tubacin] (10 nM) | 101 | 95.8 | 100 | 110 | 103 | 101 | 103 | 95.3 | 93.1 | 93 | 104 | 99.1 | 94.4 | 97.2 | 91.2 | 95.2 | 93.5 | 96 | 97.9
3 | CC(C)Cn1cnc2c(N)nc3ccccc3c21 [Imiquimod] (2.5 nM) | 95 | 103 | 107 | 114 | 98.4 | 109 | 103 | 113 | 96.2 | 97.2 | 111 | 105 | 103 | 104 | 104 |  | 104 | 95.8 | 105
4 | O=C(O)c1ccc(-c2c[nH]c3ncc(-c4ccccc4)cc23)cc1C1CCCC1 (1 nM) | 103 | 94.8 | 96.5 | 125 | 98.4 | 97.3 | 97.5 | 83.8 | 91.1 | 93.7 | 98.3 | 89.7 | 94.2 | 99.3 | 92.9 | 89.6 | 95.4 | 92.8 | 94.5
5 | COc1cc2nccc(Oc3ccc(NC(=O)C4(C(=O)Nc5ccc(F)cc5)CC4)cc3)c2cc1OC [Cabozantinib] (1 nM) | 98.8 | 100 | 95.9 | 122 | 96.1 | 101 | 99.1 | 107 | 94.4 | 99.3 | 102 | 93.5 | 104 | 105 | 102 | 101 | 97.3 | 96.6 | 102
6 | CC(C)Cn1cnc2c(N)nc3ccccc3c21 [Imiquimod] (0.25 nM) | 99 | 96.5 | 99.6 | 96.8 | 103 | 104 | 99.2 | 99.2 | 97.1 | 94.2 | 99 | 111 | 101 | 109 | 91.9 | 110 | 102 | 99.6 | 100
7 | COc1cc2ncnc(Nc3ccc(F)c(Cl)c3)c2cc1NC(=O)/C=C/CN1CCCCC1 [Dacomitinib] (1 nM) | 99.8 | 100 | 112 | 108 | 91.2 | 100 | 106 | 102 | 94.3 | 90.7 | 105 | 97.7 | 101 | 93.8 | 103 |  | 103 | 97.8 | 101
8 | N#CCNC(=O)c1ccc(-c2ccnc(Nc3ccc(N4CCOCC4)cc3)n2)cc1 [Momelotinib] (1 nM) | 95.1 | 96.9 | 94.2 | 128 | 94.6 | 95.3 | 97.6 | 94.7 | 97.7 | 100 | 97.2 | 90.4 | 97.2 | 91.9 | 98.2 | 95.8 | 89.8 | 97.8 | 92.3
9 | C#Cc1cccc(Nc2ncnc3cc(OCCOC)c(OCCOC)cc23)c1 [Erlotinib] (10 nM) | 97.3 | 102 | 113 | 74.3 | 102 | 105 | 106 | 101 | 96 | 91.7 | 110 | 98.8 | 103 | 107 | 105 |  | 99.9 | 103 | 111
10 | CN(C)/N=N/c1[nH]cnc1C(N)=O [Dacarbazine] (10 nM) | 101 | 98.3 | 102 | 103 | 102 | 101 | 103 | 85.9 | 96.3 | 101 | 105 | 101 | 104 | 111 | 106 |  | 105 | 101 | 104
11 | CCC1=C[C@@H]2CN(C1)Cc1c([nH]c3ccccc13)[C@@](C(=O)OC)(c1cc3c(cc1OC)N(C)[C@H]1[C@@](O)(C(=O)OC)[C@H](OC(C)=O)[C@]4(CC)C=CCN5CC[C@]31[C@@H]54)C2 [Vinorelbine] (10 nM) | 97.6 | 96.6 | 107 | 87.5 | 98.1 | 101 | 97.5 | 84.7 | 99.1 | 99.4 | 101 | 102 | 101 | 80.7 | 95.8 |  | 99.3 | 94.4 | 106
12 | Cc1ccc(-n2nc(C(C)(C)C)cc2NC(=O)Nc2ccc(OCCN3CCOCC3)c3ccccc23)cc1 [Doramapimod] (10 nM) | 99.3 | 94.5 | 80.3 | 121 | 96 | 98.3 | 98.3 | 103 | 91.7 | 95.5 | 101 | 90.7 | 96.3 | 85.8 | 94 |  | 93.5 | 98.1 | 89.5
13 | CN(N=O)C(=O)N[C@@H](C=O)[C@@H](O)[C@H](O)[C@H](O)CO [Streptozocin] (10 nM) |  | 100 | 108 | 77.4 | 98.9 | 106 | 105 |  | 109 | 102 | 104 | 105 | 104 | 106 | 114 | 102 | 109 | 98.1 | 108
14 | O=C(O)c1ccc(-c2c[nH]c3ncc(-c4ccccc4)cc23)cc1C1CCCC1 (10 nM) | 98.7 | 95.3 | 90.4 | 105 | 96.3 | 99.2 | 102 | 108 | 101 | 95.9 | 99.6 | 95.9 | 94 | 91.8 | 96 |  | 91.8 | 95.1 | 94
15 | CS(=O)(=O)c1ccc(C2=C(c3ccccc3)C(=O)OC2)cc1 [Rofecoxib] (10 nM) | 89.7 | 102 | 115 | 73 | 102 | 105 | 106 | 89 | 104 | 102 | 114 | 107 | 102 | 110 | 104 |  | 103 | 102 | 113
16 | CN[C@@H]1C[C@H]2O[C@@](C)([C@@H]1OC)n1c3ccccc3c3c4c(c5c6ccccc6n2c5c31)C(=O)N[C@H]4O [UCN-01] (10 nM) | 98.4 | 80.2 | 108 | 106 | 95.1 | 101 | 95.9 | 94 | 94.3 | 96.6 | 92.4 | 90.5 | 81.1 | 91.8 | 97.3 |  | 83.8 | 106 | 102
17 | CNCc1ccc(-c2[nH]c3cc(F)cc4c3c2CCNC4=O)cc1 [Rucaparib] (10 nM) | 96.9 | 94.2 | 82.7 | 112 | 98.9 | 98.3 | 100 | 102 | 102 | 96.8 | 98.5 | 98.4 | 97.2 | 93.9 | 92.3 |  | 93.6 | 99.5 | 93.5
18 | Clc1ccc(Nc2nnc(Cc3ccncc3)c3ccccc23)cc1 [Vatalanib] (10 nM) | 95 | 96 | 109 | 127 | 100 | 106 | 102 | 89.6 | 102 | 102 | 100 | 105 | 104 | 104 | 102 |  | 105 | 107 | 102
19 | CCC(C)(C)C(=O)O[C@H]1C[C@@H](C)C=C2C=C[C@H](C)[C@H](CC[C@@H]3C[C@@H](O)CC(=O)O3)[C@H]21 [Simvastatin] (10 nM) |  | 96 | 103 | 115 | 96.2 | 104 | 98.7 |  |  | 103 | 96.3 | 108 | 99.2 | 98.3 | 103 |  |  | 98.1 | 102
20 | Cn1c(Nc2ccc(C(F)(F)F)cc2)nc2cc(Oc3ccnc(-c4ncc(C(F)(F)F)[nH]4)c3)ccc21 [RAF265] (1 nM) | 96.7 | 104 | 112 | 111 | 104 | 109 | 109 | 102 | 103 | 100 | 105 | 112 | 98.5 | 127 | 104 |  | 106 | 105 | 114
21 | COc1cc([C@@H]2c3cc4c(cc3[C@@H](O[C@@H]3O[C@@H]5CO[C@@H](C)O[C@H]5[C@H](O)[C@H]3O)[C@H]3COC(=O)[C@H]23)OCO4)cc(OC)c1O [Etoposide] (10 nM) | 97.8 | 103 | 106 | 98.9 | 102 | 104 | 107 | 99.7 | 103 | 99.3 | 104 | 113 | 105 | 109 | 98.6 |  | 103 | 106 | 109
